Results taken from patent publication US20150274719A1, “AMINO-SUBSTITUTED IMIDAZO[1,2-A]PYRIDINECARBOXAMIDES AND THEIR USE” (BAYER PHARMA AKTIENGESELLSCHAFT, priority 2012, published 2015).
Structures can show the parent of a compound that is named as a salt.

Biological target: T1, recombinant guanylate cyclase reporter cell line (Rattus norvegicus, UniProt P19686+P20595)
T1 construct: expressed in transfected cells; host or cells: recombinant reporter cell line
T1 sequence (P19686 1-690): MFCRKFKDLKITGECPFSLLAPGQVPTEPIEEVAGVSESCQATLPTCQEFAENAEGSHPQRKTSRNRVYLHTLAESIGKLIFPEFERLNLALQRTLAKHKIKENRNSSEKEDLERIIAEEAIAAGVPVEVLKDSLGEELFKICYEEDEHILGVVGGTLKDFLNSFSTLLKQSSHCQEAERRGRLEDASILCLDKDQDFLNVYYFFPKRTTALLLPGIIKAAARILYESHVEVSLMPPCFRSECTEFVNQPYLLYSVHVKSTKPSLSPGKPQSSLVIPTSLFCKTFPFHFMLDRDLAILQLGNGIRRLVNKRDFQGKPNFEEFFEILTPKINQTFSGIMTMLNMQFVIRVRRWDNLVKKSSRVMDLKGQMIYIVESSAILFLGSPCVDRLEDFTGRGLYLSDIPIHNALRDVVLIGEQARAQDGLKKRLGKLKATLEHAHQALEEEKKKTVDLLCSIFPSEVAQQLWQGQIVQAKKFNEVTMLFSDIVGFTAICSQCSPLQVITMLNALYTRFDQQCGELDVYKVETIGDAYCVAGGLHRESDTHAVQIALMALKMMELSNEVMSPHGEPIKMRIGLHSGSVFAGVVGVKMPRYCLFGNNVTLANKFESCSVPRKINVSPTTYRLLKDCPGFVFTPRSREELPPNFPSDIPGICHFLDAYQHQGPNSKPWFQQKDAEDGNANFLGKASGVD
T1 sequence (P20595 1-619): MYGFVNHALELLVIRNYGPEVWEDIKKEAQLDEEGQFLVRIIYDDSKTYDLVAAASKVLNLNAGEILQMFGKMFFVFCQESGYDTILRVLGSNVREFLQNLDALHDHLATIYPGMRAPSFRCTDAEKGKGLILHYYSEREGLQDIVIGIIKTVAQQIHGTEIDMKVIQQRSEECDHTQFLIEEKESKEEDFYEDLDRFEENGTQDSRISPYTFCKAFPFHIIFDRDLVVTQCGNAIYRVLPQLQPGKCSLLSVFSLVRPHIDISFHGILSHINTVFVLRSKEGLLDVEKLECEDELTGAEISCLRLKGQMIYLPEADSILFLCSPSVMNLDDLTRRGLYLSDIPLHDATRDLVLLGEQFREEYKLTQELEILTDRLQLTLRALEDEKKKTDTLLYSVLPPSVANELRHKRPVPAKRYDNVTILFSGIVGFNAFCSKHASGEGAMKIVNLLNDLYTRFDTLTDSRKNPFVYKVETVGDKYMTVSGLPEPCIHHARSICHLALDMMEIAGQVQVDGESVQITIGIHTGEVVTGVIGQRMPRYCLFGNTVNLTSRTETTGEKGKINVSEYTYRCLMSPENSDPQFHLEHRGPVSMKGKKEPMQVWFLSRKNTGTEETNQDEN
Test: Action on recombinant guanylate cyclase reporter cell line
Assay type: cell-based
Settings: in some cases mean values from individual determinations
How it was run: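 Read-out: MEC (minimal effective concentration) in cells. Reporter line carries recombinant sGC. Some values are averages of single runs.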

| SMILES | MEC (minimal effective concentration) [µM] |
| --- | --- |
| Cc1cc(OCc2c(F)cccc2F)c2nc(C)c(C(=O)NCC(C)N3CCOCC3)n2c1 (single isomer, unassigned; ent-8) [Example 186, ent-8-[(2,6-Difluorobenzyl)oxy]-2,6-dimethyl-N-[2-(morpholin-4-yl)propyl]imidazo[1,2-a]-pyridine-3-carboxamide] | 0.30 |
| Cc1nc2c(OCc3c(F)cccc3F)cccn2c1C(=O)NCC1(N)CCCC1 [Example 41, N-[(1-aminocyclopentyl)methyl]-8-[(2,6-difluorobenzyl)oxy]-2-methylimidazo[1,2-a]-pyridine-3-carboxamide] | 0.30 |
| Cc1cc(OCc2c(F)cccc2F)c2nc(C)c(C(=O)NC3C(N)C3(C)C)n2c1 (racemic) [Example 341, rac-N-(3-amino-2,2-dimethylcyclopropyl)-8-[(2,6-difluorobenzyl)oxy]-2,6-dimethylimidazo[1,2-a]pyridine-3-carboxamide (racemate)] | 0.30 |
| Cc1nc2c(OCc3c(F)cccc3F)cc(Cl)cn2c1C(=O)NCC(N)COC(C)C (racemic) [Example 217, rac-N-(2-Amino-3-isopropoxypropyl)-6-chloro-8-[(2,6-difluorobenzyl)oxy]-2-methylimidazo[1,2-a]pyridine-3-carboxamide] | 1.00 |
| CC[C@@H](N)CNC(=O)c1c(C)nc2c(OCc3c(F)cccc3F)cc(Cl)cn12 [Example 35, ent-N-[(2R)-2-aminobutyl]-6-chloro-8-[(2,6-difluorobenzyl)oxy]-2-methyl-imidazo[1,2-a]-pyridine-3-carboxamide] | 1.00 |
| Cc1cc(OCc2c(F)cccc2F)c2nc(C)c(C(=O)NCC(C)(N)CCO)n2c1 (racemic) [Example 270, rac-N-(2-Amino-4-hydroxy-2-methylbutyl)-8-[(2,6-difluorobenzyl)oxy]-2,6-dimethylimidazo[1,2-a]pyridine-3-carboxamide] | 1.00 |
| COCC(CN)NC(=O)c1c(C)nc2c(OCc3c(F)cccc3F)cc(C)cn12 (single isomer, unassigned) [Example 210, ent-N-(1-amino-3-methoxypropan-2-yl)-8-[(2,6-difluorobenzyl)oxy]-2,6-dimethylimidazo[1,2-a]-pyridine-3-carboxamide trifluoroacetate] | 0.30 |
| COCC(C)(N)CNC(=O)c1c(C)nc2c(OCc3c(F)cccc3F)cc(C)cn12 (single isomer, unassigned) [Example 198, ent-N-(2-Amino-3-methoxy-2-methylpropyl)-8-[(2,6-difluorobenzyl)oxy]-2,6-dimethylimidazo-[1,2-a]pyridine-3-carboxamide] | 0.30 |
| CCOCC(CN)NC(=O)c1c(C)nc2c(OCc3c(F)cccc3F)cccn12 (single isomer, unassigned) [Example 56, ent-N-(1-amino-3-ethoxypropan-2-yl)-8-[(2,6-difluorobenzyl)oxy]-2-methylimidazo[1,2-a]-pyridine-3-carboxamide] | 1.00 |
| Cc1nc2c(OCc3c(F)cccc3F)cccn2c1C(=O)NCC(C)(N)CCOCc1ccccc1 (single isomer, unassigned; enantiomer a) [Example 266, ent-N-[2-Amino-4-(benzyloxy)-2-methylbutyl]-8-[(2,6-difluorobenzyl)oxy]-2-methylimidazo[1,2-a]pyridine-3-carboxamide (Enantiomer A)] | 0.03 |
| Cc1nc2c(OCc3ccccc3F)cccn2c1C(=O)NC(CN)c1ccc(F)c(F)c1 (stereo not drawn) [Example 98, ent-N-[2-Amino-1-(3,4-difluorophenyl)ethyl]-8-[(2-fluorobenzyl)oxy]-2-methylimidazo[1,2-a]-pyridine-3-carboxamide] | 1.00 |
